Assay results from US8822502B2, “Insecticidal compounds” (Syngenta Crop Protection LLC, priority 2008, dated 2014).

Tests used:
Type in all cases: in vivo
Plutella xylostella = Plutella xylostella artificial diet test; conditions: 144 h, application rate 200 ppm (concentration in well 18 ppm), L2 larvae, 6 days, larval mortality, growth regulation
Protocol: Plutella Xylostella (Diamond Back Moth):
24-well microtiter plate (MTP) with artificial diet was treated with test solutions at an application rate of 200 ppm (concentration in well 18 ppm) by pipetting. After drying, the MTP's were infested with L2 larvae (7-12 per well). After an incubation period of 6 days, samples were checked for larval mortality and growth regulation.

Spodoptera littoralis = Spodoptera littoralis cotton leaf disc spray test; conditions: foliar, 72 h, application rate 200 ppm, sprayed cotton leaf discs, L1 larvae, 3 days after treatment, mortality, feeding behavior, growth regulation
Excerpt: Spodoptera Littoralis (Egyptian Cotton Leafworm):
Cotton leaf discs were placed on agar in a 24-well microtiter plate and sprayed with test solutions at an application rate of 200 ppm. After drying, the leaf discs were infested with 5 L1 larvae. The samples were checked for mortality, feeding behavior, and growth regulation 3 days after treatment (DAT).

Heliothis virescens = Heliothis virescens egg / artificial diet test; conditions: 96 h, application rate 200 ppm (concentration in well 18 ppm), eggs 0-24 h old on artificial diet, 4 days, egg mortality, larval mortality, growth regulation
Protocol: Heliothis Virescens (Tobacco Budworm):
Eggs (0-24 h old) were placed in 24-well microtiter plate on artificial diet and treated with test solutions at an application rate of 200 ppm (concentration in well 18 ppm) by pipetting. After an incubation period of 4 days, samples were checked for egg mortality, larval mortality, and growth regulation.

Diabrotica balteata = Diabrotica balteata artificial diet test; conditions: 120 h, application rate 200 ppm (concentration in well 18 ppm), L2 larvae, 5 days, larval mortality, growth regulation
Protocol: Diabrotica Balteata (Corn Root Worm):
A 24-well microtiter plate (MTP) with artificial diet was treated with test solutions at an application rate of 200 ppm (concentration in well 18 ppm) by pipetting. After drying, the MTP's were infested with L2 larvae (6-10 per well). After an incubation period of 5 days, samples were checked for larval mortality and growth regulation.

Thrips tabaci = Thrips tabaci sunflower leaf disc spray test; conditions: foliar, 168 h, application rate 200 ppm, sprayed sunflower leaf discs, population of mixed ages, 7 days, mortality
Protocol: Thrips Tabaci (Onion Thrips):
Sunflower leaf discs were placed on agar in a 24-well microtiter plate and sprayed with test solutions at an application rate of 200 ppm. […] After an incubation period of 7 days, samples were checked for mortality.

Tetranychus urticae = Tetranychus urticae bean leaf disc spray test; conditions: foliar, 192 h, application rate 200 ppm, sprayed bean leaf discs, mite populations of mixed ages, 8 days, egg, larval and adult mortality
Excerpt: Tetranychus Urticae (Two-Spotted Spider Mite):
Bean leaf discs on agar in 24-well microtiter plates were sprayed with test solutions at an application rate of 200 ppm. After drying, the leaf discs are infested with mite populations of mixed ages. 8 days later, discs are checked for egg mortality, larval mortality, and adult mortality.

Measured: pest or weed control at 200 ppm

Cc1cc(C2=NOC(c3cc(Cl)cc(Cl)c3)(C(F)(F)F)C2Cl)ccc1C(=O)Nc1cccc(F)c1 (centres unmarked) [B14]
≥ 80%: Plutella xylostella | Spodoptera littoralis | Heliothis virescens

Cc1cc(C2=NOC(c3cc(Cl)cc(Cl)c3)(C(F)(F)F)C2Br)ccc1C(=O)NC1C[S+]([O-])C1 (single isomer, unassigned) [A25, 4-[4-bromo-5-(3,5-dichloro-phenyl)-5-trifluoromethyl-4,5-dihydro-isoxazol-3-yl]-2-methyl-N-(1-oxo-thietan-3-yl)-benzamide]
≥ 80%: Diabrotica balteata

CCC(C)NC(=O)c1ccc(C2=NOC(c3cc(Cl)cc(Cl)c3)(C(F)(F)F)C2Br)c2ccccc12 (centres unmarked) [F6]
not listed: Tetranychus urticae
≥ 80%: all other assays above

CCNC(=O)c1ccc(C2=NOC(c3cc(Cl)cc(Cl)c3)(C(F)(F)F)C2Cl)cc1C (centres unmarked) [B3]
≥ 80%: all assays above

CCCCNC(=O)c1ccc(C2=NOC(c3cc(Cl)cc(Cl)c3)(C(F)(F)F)C2Cl)cc1C (centres unmarked) [B1]
≥ 80%: all assays above

Cc1cc(C2=NOC(c3cc(Cl)cc(Cl)c3)(C(F)(F)F)C2Cl)ccc1C(=O)NC1CCC1 (centres unmarked) [B23]
≥ 80%: all assays above

Cc1cc(C2=NOC(c3cc(Cl)cc(Cl)c3)(C(F)(F)F)C2Br)ccc1C(=O)Nc1cccc(F)c1 (centres unmarked) [A15]
≥ 80%: all assays above

O=C(NCc1ccccc1)c1ccc(C2=NOC(c3cc(Cl)cc(Cl)c3)(C(F)(F)F)C2Br)c2ccccc12 (centres unmarked) [F8]
not listed: Tetranychus urticae
≥ 80%: all other assays above

CCNC(=O)c1ccc(C2=NOC(c3cc(Cl)cc(Cl)c3)(C(F)(F)F)C2Br)c2ccccc12 (centres unmarked) [F2]
≥ 80%: Diabrotica balteata

O=C(NC1CSC1)c1ccc(C2=NOC(c3cc(Cl)cc(Cl)c3)(C(F)(F)F)C2Br)c2ccccc12 (centres unmarked) [F21]
≥ 80%: all assays above

CCCCNC(=O)c1ccc(C2=NOC(c3cc(Cl)cc(Cl)c3)(C(F)(F)F)C2Br)cc1C (centres unmarked) [A1, 4-[4-bromo-5-(3,5-dichloro-phenyl)-5-trifluoromethyl-4,5-dihydro-isoxazol-3-yl]-N-butyl-2-methyl-benzamide]
not listed: Thrips tabaci
≥ 80%: all other assays above

CCCCNC(=O)c1ccc(C2=NOC(c3cc(Cl)cc(Cl)c3)(C(F)(F)F)C2Br)c2ccccc12 (centres unmarked) [F3]
≥ 80%: Thrips tabaci | Plutella xylostella | Spodoptera littoralis | Heliothis virescens

CCCCNC(=O)c1ccc(C2=NOC(c3cc(Cl)cc(Cl)c3)(C(F)(F)F)C2C)cc1C (centres unmarked) [E1, N-butyl-4-[5-(3,5-dichloro-phenyl)-4-methyl-5-trifluoromethyl-4,5-dihydro-isoxazol-3-yl]-2-methyl-benzamide]
≥ 80%: all assays above

CCCCNC(=O)c1ccc(C2=NOC(c3cc(Cl)cc(Cl)c3)(C(F)(F)F)C2SC)cc1C (centres unmarked) [D1, N-butyl-4-[5-(3,5-dichloro-phenyl)-4-methylsulfanyl-5-trifluoromethyl-4,5-dihydro-isoxazol-3-yl]-2-methyl-benzamide]
≥ 80%: Plutella xylostella | Spodoptera littoralis | Diabrotica balteata | Heliothis virescens

CCC(C)NC(=O)c1ccc(C2=NOC(c3cc(Cl)cc(Cl)c3)(C(F)(F)F)C2Cl)cc1C (centres unmarked) [B6]
≥ 80%: all assays above

Cc1cc(C2=NOC(c3cc(Cl)cc(Cl)c3)(C(F)(F)F)C2(F)F)ccc1C(=O)NCc1ccccn1 (centres unmarked) [C1, 4-[5-(3,5-dichloro-phenyl)-4,4-difluoro-5-trifluoromethyl-4,5-dihydro-isoxazol-3-yl]-2-methyl-N-pyridin-2-ylmethyl-benzamide]
not listed: Thrips tabaci
≥ 80%: all other assays above

CCCCNC(=O)c1ccc(C2=NOC(c3cc(Cl)cc(Cl)c3)(C(F)(F)F)C2S(C)(=O)=O)cc1C (centres unmarked) [D2, N-butyl-4-[5-(3,5-dichloro-phenyl)-4-methylsulfonyl-5-trifluoromethyl-4,5-dihydro-isoxazol-3-yl]-2-methyl-benzamide]
≥ 80%: Plutella xylostella | Spodoptera littoralis

O=C(Nc1cccc(F)c1)c1ccc(C2=NOC(c3cc(Cl)cc(Cl)c3)(C(F)(F)F)C2Br)c2ccccc12 (centres unmarked) [F14]
not listed: Tetranychus urticae
≥ 80%: all other assays above

CSC1C(c2ccc(C(=O)NC3CSC3)c(C)c2)=NOC1(c1cc(Cl)cc(Cl)c1)C(F)(F)F (centres unmarked) [D3, 4-[5-(3,5-dichloro-phenyl)-4-methylsulfanyl-5-trifluoromethyl-4,5-dihydro-isoxazol-3-yl]-2-methyl-N-thietan-3-yl-benzamide]
not listed: Thrips tabaci
≥ 80%: all other assays above

Cc1cc(C2=NOC(c3cc(Cl)cc(Cl)c3)(C(F)(F)F)C2Cl)ccc1C(=O)NC1CSC1 (centres unmarked) [B21]
≥ 80%: all assays above

Cc1cc(C2=NOC(c3cc(Cl)cc(Cl)c3)(C(F)(F)F)C2S(C)(=O)=O)ccc1C(=O)NC1CSC1 (centres unmarked) [D4, 4-[5-(3,5-dichloro-phenyl)-4-methylsulfonyl-5-trifluoromethyl-4,5-dihydro-isoxazol-3-yl]-2-methyl-N-thietan-3-yl-benzamide]
≥ 80%: Tetranychus urticae | Heliothis virescens
